From paper PMC10434227 (Microbiology Spectrum, 2023)
Counter-ions that a name gives are not always drawn. Like-named read-outs stand apart in the source and are kept apart here.

How the values were obtained:
rVACV Nluc/Scarlet = experiment: microbe, parasite or virus in culture; type: cell-based, vaccinia virus (VACV)
A549 cells [1] = test system: A549 cells
[2] = test system: MPXV USA-2003 (NR-2500) clade II; experiment: microbe, parasite or virus in culture; type: cell-based, monkeypox virus (MPXV)
A549 cells [3] = test system: A549 cells; remark: listed apart in the source
rVACV Nluc/GFP = experiment: microbe, parasite or virus in culture; type: cell-based, vaccinia virus (VACV)
in vitro [4] = conditions: human
in vitro [5] = conditions: human; remark: listed apart in the source
[6] = read-out: EC50 FP (Scarlet fluorescence)
[7] = read-out: EC50 FP (GFP fluorescence)
[8] = Orthopoxvirus vaccinia, A549, read-out: EC50 FP (Scarlet fluorescence)
[9] = Orthopoxvirus vaccinia, A549, read-out: EC50 Nluc
[10] = Monkeypox virus, A549, read-out: EC50 against MPXV
[11] = Orthopoxvirus vaccinia, A549, read-out: EC50 FP (GFP fluorescence)

| Compound | EC50 (rVACV Nluc/Scarlet; [6]) [nM] | EC50 (rVACV Nluc/Scarlet; read-out: EC50 Nluc) [nM] | CC50 (A549 cells [1]) [nM] | inhibitory activity against MPXV (in words) [2] | EC50 ([2]; read-out: EC50 against MPXV) [nM] | CC50 (A549 cells [3]) [nM] | EC50 (rVACV Nluc/GFP; [7]) [nM] | EC50 (rVACV Nluc/GFP; read-out: EC50 Nluc) [nM] | EC50 (rVACV Nluc/Scarlet; [8]) [nM] | EC50 (rVACV Nluc/Scarlet; [9]) [nM] | CC50 (in vitro [4]) [nM] | EC50 [2, 10] [nM] | CC50 (in vitro [5]) [nM] | EC50 (rVACV Nluc/GFP; [11]) [nM] | EC50 (rVACV Nluc/GFP; [9]) [nM] |
| --- | --- | --- | --- | --- | --- | --- | --- | --- | --- | --- | --- | --- | --- | --- | --- |
| 2,2′-bi-1H-benzimidazole | > 50000 | > 50000 | > 50000 | did not inhibit MPXV infection | > 50000 | > 50000 | > 50000 | > 50000 |  |  |  |  |  |  |  |
| 2′,3′,5′-triacetyl-6-azauridine [Azaribine] | 1320 | 1410 | > 150000 |  |  | > 150000 | 1030 | 1130 |  |  |  |  |  |  |  |
| CC[C@H](CC#N)OC(=O)N[C@@H](C)c1cccc(NC(=O)Nc2ccc(-c3cnco3)c(OC)c2)c1 [AVN-944] |  |  |  |  |  |  |  |  | 130 | 110 | > 50000 | 170 | > 50000 | 70 | 70 |
| S=C(NCc1ccc2c(c1)OCO2)N1CCN(c2ncnc3c2oc2ccccc23)CC1 [Amuvatinib, amuvatinib] |  | 6630 |  |  |  |  |  |  | 4760 | 6830 |  | 3470 |  | 3260 | 3890 |
| CCCCCC[C@H]1C(=O)O[C@H](C)[C@H](NC(=O)c2cccc(NC=O)c2O)C(=O)O[C@@H](C)[C@@H]1OC(=O)CC(C)C [Antimycin A, antimycin A] |  |  |  |  |  |  | 60 | 120 | 70 | 90 |  | 10 |  | 80 | 130 |
| O=c1cnn([C@@H]2O[C@H](CO)[C@@H](O)[C@H]2O)c(=O)[nH]1 [Azauridine, 6-azauridine] | 640 |  |  |  |  |  |  | 1580 | 840 | 1510 | > 50000 | 2390 | > 50000 | 1740 | 1590 |
| CO/C=C(/C(=O)OC)c1ccccc1Oc1cc(Oc2ccccc2C#N)ncn1 [Azoxystrobin, azoxystrobin] | 7920 | 6100 | > 450000 |  | 10800 | 27900 | 7850 | 6120 |  |  |  |  |  |  |  |
| Cc1c(-c2ccc(-c3ccccc3F)cc2)nc2ccc(F)cc2c1C(=O)O [Brequinar, brequinar sodium salt hydrate] |  |  |  |  |  |  |  | 40 | 120 | 110 | > 50000 | 160 | > 50000 | 180 | < 40 |
| CC(C)(C)[C@H]1CC[C@H](CC2=C(O)C(=O)c3ccccc3C2=O)CC1 [Buparvaquone, buparvaquone] |  |  |  |  |  |  | 1950 |  | 1760 | 1120 |  | 7220 |  | 1850 | 1070 |
| CC[C@@]1([C@@H]2O[C@@H]([C@H]3O[C@@](O)(CO)[C@H](C)C[C@@H]3C)C[C@@H]2C)CC[C@H]([C@]2(C)CC[C@]3(C[C@H](O)[C@@H](C)[C@@H]([C@@H](C)[C@@H](OC)[C@H](C)C(=O)O)O3)O2)O1 [Monensin, monensin sodium salt] |  |  |  |  |  |  |  |  | 70 | 80 | > 50000 | 50 | > 50000 | 80 | 130 |
